# Data as given in ChEMBL document CHEMBL4138254 (ACS Med Chem Lett, 2017).
# pIC50: −log10 of the molar value.
# Key:
# Autotaxin [1] = molecular target: T1, Autotaxin (Rattus norvegicus, UniProt Q64610); experiment: Inhibition of recombinant rat ATX using LPC 18:1 as substrate after 2 hrs by rapidfire/MS-based analysis
# Autotaxin [2] = molecular target: T1, Autotaxin; experiment: Inhibition of ATX in rat whole blood using LPA 17:0 as substrate after 1 hr by LC-MS/MS analysis
# [3] = Protein binding in human plasma; format: ADME, cell-free; details: read-out: PPB
# [4] = Protein binding in rat plasma; format: ADME, cell-free; details: read-out: PPB
# Rattus norvegicus [5] = experiment: Dose normalized AUC in Han Wistar rat at 1 mg/kg, iv; format: ADME, organism-based; details: in vivo
# Rattus norvegicus [6] = experiment: Dose normalized AUC in Han Wistar rat at 10 mg/kg, po; format: ADME, organism-based; details: in vivo
# Rattus norvegicus [7] = experiment: Clearance in Han Wistar rat at 1 mg/kg, iv relative to hepatic blood flow; format: ADME, organism-based; details: in vivo
# [8] = Volume of distribution at steady state in Han Wistar rat at 1 mg/kg, iv; format: ADME, organism-based; details: in vivo, read-out: Vdss
# Rattus norvegicus [9] = experiment: Dose normalized Cmax in Han Wistar rat at 10 mg/kg, po; format: ADME, organism-based; details: in vivo
# [10] = Tmax in Han Wistar rat at 10 mg/kg, po; format: ADME, organism-based; details: in vivo
# [11] = Half life in Han Wistar rat at 1 mg/kg, iv; format: ADME, organism-based; details: in vivo
# [12] = Half life in Han Wistar rat at 10 mg/kg, po; format: ADME, organism-based; details: in vivo
# [13] = Oral bioavailability in Han Wistar rat at 10 mg/kg; format: ADME, organism-based; details: in vivo
# Rattus norvegicus [14] = experiment: In vivo inhibition of ATX in Han Wistar rat assessed as decrease in plasma LPA 18:0 species level measured up to 24 hrs by LC-MS/MS analysis relative to control; format: functional
# Rattus norvegicus [15] = experiment: In vivo inhibition of ATX in Han Wistar rat assessed as decrease in plasma LPA 18:2 species level measured up to 24 hrs by LC-MS/MS analysis relative to control; format: functional
# Rattus norvegicus [16] = experiment: In vivo inhibition of ATX in Han Wistar rat assessed as decrease in plasma LPA 16:0 species level measured up to 24 hrs by LC-MS/MS analysis relative to control; format: functional
# Rattus norvegicus [17] = experiment: In vivo inhibition of ATX in Han Wistar rat assessed as decrease in plasma LPA 18:1 species level measured up to 24 hrs by LC-MS/MS analysis relative to control; format: functional
# Rattus norvegicus [18] = experiment: In vivo inhibition of ATX in Han Wistar rat assessed as decrease in plasma LPA 20:4 species level measured up to 24 hrs by LC-MS/MS analysis relative to control; format: functional
# [19] = molecular target: 5-hydroxytryptamine receptor 2A (Homo sapiens) (UniProt P28223); experiment: Inhibition of recombinant human 5-HT2A receptor at 10 uM after 60 mins by scintillation counting analysis relative to control
# L-type calcium channel = L-type calcium channel (Homo sapiens, UniProt O60840+Q01668+Q13698+Q13936); experiment: Inhibition of L-type calcium channel (unknown origin) at 10 uM relative to control; format: protein assay
# Homo sapiens = species: Homo sapiens; experiment: Inhibition of sodium channel site 2 (unknown origin) at 10 uM relative to control
# [20] = molecular target: Sodium-dependent noradrenaline transporter (Homo sapiens) (UniProt P23975); experiment: Inhibition of norepinephrine transporter (unknown origin) at 10 uM relative to control
# Rattus norvegicus [21] = experiment: In vivo inhibition of ATX in Han Wistar rat assessed as decrease in plasma LPA species level measured up to 24 hrs by LC-MS/MS analysis; format: functional, organism-based
# [22] = molecular target: Voltage-gated inwardly rectifying potassium channel KCNH2 (Homo sapiens, UniProt Q12809)
# Description: Inhibition of human ERG expressed in HEK293 cells by patch clamp assay
# physchem [23] = details: pH 2.2 buffer solution
# Description: Aqueous solubility of the compound in pH 2.2 buffer solution after 24 hrs by LC-UV analysis
# physchem [24] = details: pH 4.5 buffer solution
# Description: Aqueous solubility of the compound in pH 4.5 buffer solution after 24 hrs by LC-UV analysis
# physchem [25] = details: pH 6.8 buffer solution
# Description: Aqueous solubility of the compound in pH 6.8 buffer solution after 24 hrs by LC-UV analysis
# in vitro = details: human, Caco-2
# Description: Apparent permeability across apical to basolateral side in human Caco2 cells at 10 uM measured up to 90 mins
# Sequence of Voltage-gated inwardly rectifying potassium channel KCNH2 (Q12809 whole entry): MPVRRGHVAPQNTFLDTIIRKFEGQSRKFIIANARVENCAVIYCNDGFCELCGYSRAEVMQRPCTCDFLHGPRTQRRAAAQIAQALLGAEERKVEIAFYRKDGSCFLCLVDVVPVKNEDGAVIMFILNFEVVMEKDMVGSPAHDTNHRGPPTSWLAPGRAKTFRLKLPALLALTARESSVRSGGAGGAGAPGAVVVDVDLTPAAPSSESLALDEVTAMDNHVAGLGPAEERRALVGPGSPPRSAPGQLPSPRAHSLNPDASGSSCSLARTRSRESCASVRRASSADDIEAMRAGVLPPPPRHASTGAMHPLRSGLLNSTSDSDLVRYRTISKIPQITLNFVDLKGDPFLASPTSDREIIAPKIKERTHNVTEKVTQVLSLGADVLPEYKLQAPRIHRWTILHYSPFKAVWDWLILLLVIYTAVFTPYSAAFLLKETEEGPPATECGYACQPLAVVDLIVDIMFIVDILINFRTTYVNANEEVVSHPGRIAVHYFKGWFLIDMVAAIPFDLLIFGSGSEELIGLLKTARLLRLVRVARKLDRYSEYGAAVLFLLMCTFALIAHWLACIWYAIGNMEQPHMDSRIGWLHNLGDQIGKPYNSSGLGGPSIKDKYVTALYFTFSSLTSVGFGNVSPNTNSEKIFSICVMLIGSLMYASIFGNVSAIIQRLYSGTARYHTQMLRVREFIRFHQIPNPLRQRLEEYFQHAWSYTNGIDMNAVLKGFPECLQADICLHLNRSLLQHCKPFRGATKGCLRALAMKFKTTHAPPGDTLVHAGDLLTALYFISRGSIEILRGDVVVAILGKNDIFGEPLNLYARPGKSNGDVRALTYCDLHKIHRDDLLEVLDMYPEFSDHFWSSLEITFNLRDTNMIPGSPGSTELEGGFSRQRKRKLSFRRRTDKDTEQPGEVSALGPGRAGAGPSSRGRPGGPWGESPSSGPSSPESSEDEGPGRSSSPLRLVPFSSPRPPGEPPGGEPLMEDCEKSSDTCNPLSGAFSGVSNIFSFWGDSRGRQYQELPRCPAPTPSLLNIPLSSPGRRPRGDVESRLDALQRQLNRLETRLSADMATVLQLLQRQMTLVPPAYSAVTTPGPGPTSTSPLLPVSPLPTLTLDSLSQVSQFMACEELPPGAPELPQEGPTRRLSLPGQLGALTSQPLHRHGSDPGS
# Sequence of 5-hydroxytryptamine receptor 2A (Homo sapiens) (P28223 whole entry): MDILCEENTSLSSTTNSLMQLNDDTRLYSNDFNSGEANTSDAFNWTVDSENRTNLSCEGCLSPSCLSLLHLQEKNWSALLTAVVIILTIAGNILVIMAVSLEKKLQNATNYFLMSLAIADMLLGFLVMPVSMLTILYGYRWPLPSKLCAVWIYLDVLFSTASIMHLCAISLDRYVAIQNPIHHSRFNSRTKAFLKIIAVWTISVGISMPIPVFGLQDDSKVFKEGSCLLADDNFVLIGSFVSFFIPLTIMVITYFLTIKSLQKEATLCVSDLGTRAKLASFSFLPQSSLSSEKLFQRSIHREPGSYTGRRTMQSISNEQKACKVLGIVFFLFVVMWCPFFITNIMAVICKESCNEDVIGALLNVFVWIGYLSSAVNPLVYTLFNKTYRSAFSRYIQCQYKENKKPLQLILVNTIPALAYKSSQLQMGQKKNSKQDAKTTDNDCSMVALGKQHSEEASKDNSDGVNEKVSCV
# Sequence of Sodium-dependent noradrenaline transporter (Homo sapiens) (P23975 whole entry): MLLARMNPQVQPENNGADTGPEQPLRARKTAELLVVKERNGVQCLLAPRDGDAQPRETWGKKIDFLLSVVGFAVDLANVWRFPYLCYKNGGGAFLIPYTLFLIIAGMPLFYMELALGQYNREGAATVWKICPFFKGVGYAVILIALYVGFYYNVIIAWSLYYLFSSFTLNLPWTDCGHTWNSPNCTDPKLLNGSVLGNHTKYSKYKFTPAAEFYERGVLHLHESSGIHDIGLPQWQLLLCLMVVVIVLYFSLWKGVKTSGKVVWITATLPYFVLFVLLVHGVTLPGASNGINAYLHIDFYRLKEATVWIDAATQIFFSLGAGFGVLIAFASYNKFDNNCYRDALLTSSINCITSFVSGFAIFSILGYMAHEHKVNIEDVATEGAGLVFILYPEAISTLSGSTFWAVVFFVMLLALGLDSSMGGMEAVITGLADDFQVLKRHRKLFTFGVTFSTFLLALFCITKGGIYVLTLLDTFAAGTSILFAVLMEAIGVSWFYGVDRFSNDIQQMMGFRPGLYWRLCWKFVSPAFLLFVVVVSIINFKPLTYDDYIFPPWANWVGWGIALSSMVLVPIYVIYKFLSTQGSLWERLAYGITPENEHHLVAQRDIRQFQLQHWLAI
compound,measurement,setting,value
O=C(NC[C@@H]1[C@H]2CN(C(=O)OCc3cc(C(F)(F)F)cc(C(F)(F)F)c3)C[C@@H]12)c1ccc2[nH]nnc2c1 [BI 2545],pIC50,Autotaxin [1],8.47
same,pIC50,Autotaxin [2],7.02
same,fraction unbound,[3],< 0.002
same,fraction unbound,[4],< 0.002
same,AUC/dose,Rattus norvegicus [5],2320 nM·h
same,AUC/dose,Rattus norvegicus [6],675 nM·h
same,CL,Rattus norvegicus [7],10%
same,Vd,[8],0.9 L/kg
same,Cmax/dose,Rattus norvegicus [9],149 nM
same,Tmax,[10],1.7 h
same,half-life,[11],1.8 h
same,half-life,[12],3.4 h
same,bioavailability,[13],30%
same,inhibition (INH),Rattus norvegicus [14],<=90%
same,inhibition (INH),Rattus norvegicus [15],<=90%
same,inhibition (INH),Rattus norvegicus [16],<=90%
same,inhibition (INH),Rattus norvegicus [17],<=90%
same,inhibition (INH),Rattus norvegicus [18],<=90%
same,inhibition,[19],55%
same,inhibition at 10 µM,L-type calcium channel,80%
same,inhibition,Homo sapiens,66%
same,inhibition,[20],61%
same,pIC50,Rattus norvegicus [21],7.00
same,pIC50,[22],< 5.00
same,solubility at 24 h,physchem [23],< 1 µg/mL
same,solubility at 24 h,physchem [24],< 1 µg/mL
same,solubility at 24 h,physchem [25],< 1 µg/mL
same,"Papp A→B at 1.5 h, 10 µM",in vitro,9 ×10⁻⁶ cm/s
